Data set [1] has as its system HT22 cells. Briefly: Hypoxia/reoxygenation-induced cell death, LDH release assay. It counts as cell-based. On the procedure:
(§1) HT22 cells were cultured in DMEM containing 10% FBS in a 10% CO2 incubator at 37° C.
(§2) Hypoxia loading was performed by using an oxygen absorber/CO2 generator AnaeroPack Kenki For Cell™, and reoxygenation was performed by restoring the condition to normoxia.
LDH assay was conducted using a supernatant of a medium of cells treated as intended as a sample and a measurement kit (LDH cytotoxic test).
Specifically, the cells were cultured in a 96-well assay plate and treated as intended. Then, 50 μL of only the medium was collected and transferred to a newly prepared plate. A coloring reagent was added to each well. After incubation for 20 minutes, 100 μL of a reaction stop solution was added thereto, and the absorbance at 570 nm was measured using a microplate reader. The results are indicated relative to the absorbance of control cells defined as 100%.
LDH release was measured after hypoxia for 18 hours (H18) and subsequent reoxygenation for 24 hours (R24). Cells placed under normoxia for 42 (18+24) hours (N42) were used as a control. GR103691 was added immediately before reoxygenation (or after 18-hour culture to the control cells).
LDH release was measured after hypoxia for 18 hours (H18) and subsequent reoxygenation for 24 hours (R24). Cells placed under normoxia for 42 (18+24) hours (N42) were used as a control. Nafadotride was added immediately before reoxygenation (or after 18-hour culture for the control cells).
In general terms: Release of lactate dehydrogenase indicates damage to the cell membrane.

Data set [2] concerns HT22 cells. As to the kind of experiment: Glutamic acid-induced cell death, MTT assay. It counts as cell-based. Conditions: MTT 24 hours after glutamic acid, added immediately before glutamic acid. The procedure:
(§3) HT22 cells were cultured in DMEM containing 10% FBS in a 10% CO2 incubator at 37° C. MTT assay was conducted according to a ordinary method by using cells treated as intended as a sample. Specifically, the cells were cultured in a 96-well assay plate and treated as intended. Then, 10 μL of an MTT solution was added to each well, followed by incubation for 4 hours. 100 μL of a reaction stop solution was added thereto. The plate was left overnight, and the absorbance (measurement wavelength: 570 nm, control wavelength: 655 nm) was then measured using a microplate reader. The results are indicated relative to the absorbance of control cells defined as 100%. In this context, the MTT value is a value that indicates mitochondrial reductive capacity. This value correlates with cell viability in many cases and is therefore used as an index of cell viability. It has been confirmed as to the glutamic acid-induced cell death of HT22 cells that the results of MTT assay correlate with cell viability. MTT assay was conducted 24 hours after addition of glutamic acid. GR103691 was added immediately before the addition of glutamic acid (Glu).
A general note: Tetrazolium assays rely on reduction of a dye to a coloured formazan, in cell work by metabolically active cells.

Data set [3] relates to HT22 cells. As to the kind of experiment: Tunicamycin-induced cell death, MTT assay. It counts as cell-based. The conditions noted are these: MTT 24 hours after tunicamycin, added immediately before tunicamycin. The procedure: as §3, with “tunicamycin (TM).” for “glutamic acid.”, “tunicamycin (TM).” for “glutamic acid (Glu).”
Data set [4] has as its system HT22 cells. Briefly: Intracellular reactive oxygen species (ROS) assay with H2DCFDA after hypoxia-reoxygenation loading. The conditions noted are these: 3 μM, added immediately before reoxygenation, hypoxia 18 h, reoxygenation 3 h. It counts as cell-based. On the procedure:
as §1, §2
Intracellular ROS levels were measured by using H2DCFDA. Cells were treated as intended and then treated with 5 μM H2DCFDA. After 15 minutes, the cells were observed under a fluorescence microscope (480 nm/526 nm).
Time-dependent change of ROS was examined during reoxygenation for 12 hours after hypoxia for 18 hours (H18). Cells placed under normoxia for the same hours (N30) were used as a control. GR103691 was added at a concentration of 3 μM immediately before reoxygenation (or after 18-hour culture to the control cells).

Another data set concerns hippocampal CA1 region. As to the kind of experiment: Mouse cerebral ischemia/reperfusion model, FJB and ssDNA staining of hippocampal CA1 region. It counts as in vivo, C57BL/6J mice. The conditions noted are these: 72 hours after reperfusion. The procedure: Male C57BL/6J mice (9-12 week old) were used. After halothane anesthesia, the left and right common carotid arteries were ligated for 17 minutes while the cerebral blood flow was monitored. Then, the blood flow was resumed to prepare a cerebral ischemia/reperfusion model. Paraffin sections of the brain were prepared 72 hours after reperfusion according to an ordinary method and immunostained with Fluoro Jade B (FJB) that stains dead cells green or with single-stranded DNA (ssDNA) that permits detection of apoptosis cells by the staining of nuclear fragmentation. The cells were observed under a microscope. GR103691 was administered at a dose of 1, 3, or 10 mg/kg from the tail vein of each mouse within 10 minutes after reperfusion. Moreover, for comparison, edaravone (manufactured by CALBIOCHEM) used for improving neurological symptoms, problems with movement of daily living, and dysfunction at the acute stage of brain infarction was administered at a dose of 3 or 10 mg/kg to each mouse. A saline-administered group and a sham group without only ischemia treatment were observed as controls.
In FIG. 7, the bright green color represents apoptosis cells. Moreover, the number of FJB-positive cells was counted to determine its proportion to the total number of cells (FIG. 8). The results of each group are indicated as mean±standard error.

Setting [5] is: HT22 cells, added immediately before reoxygenation.
Setting [6] is: HT22 cells, hypoxia 18 h, reoxygenation 24 h, added immediately before reoxygenation.
Where [7] appears, read: 10 mg/kg from the tail vein within 10 minutes after reperfusion.
The mark [8] stands for this setting: 1, 3, or 10 mg/kg from the tail vein within 10 minutes after reperfusion.

Entries after “also recorded” stand apart in the source; their conditions may differ.

The source of these data is patent US20110178100A1, “APOPTOSIS INHIBITOR” (NIHON UNIVERSITY, priority 2008, published 2011).

`COc1ccccc1N1CCN(CCCCNC(=O)c2ccc(-c3ccc(C(C)=O)cc3)cc2)CC1` [GR103691, 4′-acetyl-N-[4-[4-(2-methoxyphenyl)-1-piperazinyl]butyl]-[1,1′-biphenyl]-4-carboxamide]: the “LDH release of the control cells” value in the data set with HT22 cells [1] (HT22 cells under normoxia 42 h (N42), added after 18-hour culture) is reported as “not influenced”. Besides, in the data set on HT22 cells [1] (setting [5]), the “increase of LDH release caused by H18/R24” value was “almost the maximum effect”. Besides, in the data set on HT22 cells [1] (setting [6]), the “LDH release of H18/R24-treated cells (hypoxia/reoxygenation-induced cell death)” value is on record as “reduced the LDH release of the H18/R24-treated cells in a concentration-dependent manner” and the “concentration at which the reduction of LDH release of H18/R24-treated cells was significant” value is ≥ 1 µM. Moreover, the “reduction of MTT value caused by glutamic acid (glutamic acid-induced cell death)” value in the data set on HT22 cells [2] is “significantly recovered the reduction of MTT value”. Also, the “reduction of MTT value caused by TM (tunicamycin-induced cell death)” value in the data set on HT22 cells [3] is given as “did not influence the reduction of MTT value”. The “transient increase of ROS in H18/R3-treated cells (H2DCFDA-positive cells)” value in the data set with HT22 cells [4] is given as “inhibited”. In the data set with hippocampal CA1 region (setting [7]), the “cell death in the hippocampal CA1 region (FJB-positive cells)” value is listed as “significantly inhibited” and the “ssDNA-positive cells in the hippocampal CA1 region” value is given as “significantly decreased”. In the data set with hippocampal CA1 region (setting [8]), the “cell death in the hippocampal CA1 region (FJB-positive cells)” value was “inhibited such cell death in a dose-dependent manner” and the “ssDNA-positive cells in the hippocampal CA1 region” value is “decreased by GR103691 in a dose-dependent manner”.
As for `CC1=NN(c2ccccc2)C(=O)C1` [edaravone, reference compound], in the data set on hippocampal CA1 region (edaravone 3 or 10 mg/kg), the “decreasing effect on ssDNA-positive cells in the hippocampal CA1 region, compared with GR103691” value is on record as “almost the same level” and the “inhibitory effect on cell death in the hippocampal CA1 region (FJB-positive cells), compared with GR103691” value is given as “almost the same level”.
With `CCCCN1CCCC1CNC(=O)c1cc(C#N)c2ccccc2c1OC` (centres unmarked) [nafadotride, reference compound], the “increase of LDH release caused by H18/R24” value with HT22 cells [1] (setting [5]) was “did not inhibit apoptosis; also recorded: did not influence increase of LDH release”.
